In the NIST ThermoML archive (doi:10.1016/j.fluid.2006.01.026):
Numbers after ± are expanded uncertainties.

Conditions: 101.33 kPa, Liquid; for viscosity: Capillary tube (Ostwald / Ubbelohde) method; for mass density: Vibrating tube method

| SMILES | viscosity (283.15 K) [mPa·s] | viscosity (293.15 K) [mPa·s] | viscosity (303.15 K) [mPa·s] | viscosity (313.15 K) [mPa·s] | viscosity (323.15 K) [mPa·s] | viscosity (333.15 K) [mPa·s] | viscosity (343.15 K) [mPa·s] | viscosity (353.15 K) [mPa·s] | viscosity (363.15 K) [mPa·s] | viscosity (373.15 K) [mPa·s] | mass density (283.15 K) [kg/m3] | mass density (298.15 K) [kg/m3] | mass density (323.15 K) [kg/m3] | mass density (348.15 K) [kg/m3] |
| --- | --- | --- | --- | --- | --- | --- | --- | --- | --- | --- | --- | --- | --- | --- |
| CCCCn1cc[n+](C)c1.O=S(=O)([O-])C(F)(F)C(F)OC(F)(F)F (stereo not drawn) | 626 ± 68 | 298 ± 31 | 159 ± 16 | 93 ± 9 | 59 ± 6 | 39.8 ± 4 | 28.2 ± 2.8 | 20.7 ± 2.1 | 15.6 ± 1.6 | 11.9 ± 1.2 |  |  |  |  |
| CCCC[n+]1ccn(C)c1.O=S(=O)([O-])C(F)(F)C(F)C(F)(F)F (stereo not drawn) | 853 ± 94 | 378 ± 40 | 192 ± 20 | 108 ± 11 | 66.8 ± 6.8 | 44.2 ± 4.5 | 30.8 ± 3.1 | 22.3 ± 2.2 | 16.6 ± 1.7 | 12.5 ± 1.3 |  |  |  |  |
| CCCCCCCCCCCCCC[P+](CCCC)(CCCC)CCCC.O=S(=O)([O-])C(F)(F)C(F)C(F)(F)F | 2512 ± 300 | 1103 ± 120 | 539 ± 58 | 289 ± 30 | 167 ± 17 | 103 ± 10 | 66.6 ± 6.7 | 45 ± 4.5 | 31.5 ± 3.2 | 22.6 ± 2.3 | 1082 ± 2 | 1070 ± 2 | 1052 ± 2 | 1034 ± 2 |
| CCCCn1cc[n+](C)c1.O=S(=O)([O-])C(F)(F)C(F)OC(F)(F)C(F)(F)F (stereo not drawn) | 1021 ± 110 | 444 ± 48 | 218 ± 23 | 119 ± 12 | 71.2 ± 7.2 | 45.9 ± 4.6 | 31.6 ± 3.2 | 22.9 ± 2.3 | 17.3 ± 1.7 | 13.5 ± 1.4 |  |  |  |  |
| CCCCCCCCCCCCCC[P+](CCCCCC)(CCCCCC)CCCCCC.O=S(=O)([O-])C(F)(F)C(F)OC(F)(F)C(F)(F)F | 1319 ± 150 | 625 ± 68 | 330 ± 35 | 191 ± 20 | 118 ± 12 | 77.4 ± 7.8 | 52.9 ± 5.3 | 37.2 ± 3.8 | 26.7 ± 2.7 | 19.3 ± 1.9 | 1075 ± 2 | 1063 ± 2 | 1044 ± 2 | 1025 ± 2 |
